The subject of this series is goat anti-rabbit IgG (GAR). In words: Protein precipitation / water solubility of dye-protein conjugates at high dye/protein ratio. Type of series: physicochemical. The source says: FIG. 1. […] Their PBS solutions are adjusted to have the same absorption of OD=0.05 at 600 nm. The PBS solutions are excited at 600 nm, and the emissions are scanned from 620 to 800 nm.
FIG. 2. […] Their PBS solutions are adjusted to have the same absorption of OD=0.05 at 600 nm. The PBS solutions are excited at 600 nm, and the emissions are scanned from 620 to 800 nm.
FIG. 3. […] Their PBS solutions are adjusted to have the same absorption of OD=0.1 at 450 nm. The PBS solutions are excited at 460 nm, and the emissions are scanned from 470 to 650 nm.
The typical method for protein conjugation with succinimidyl esters of the invention is as follows. Variations in ratios of dye to protein, protein concentration, time, temperature, buffer composition and other variables that are well known in the art are possible that still yield useful conjugates. A solution of the protein is prepared at about 10 mg/mL in 0.1M sodium bicarbonate. The labeling reagents are dissolved in a suitable solvent such as DMF or DMSO at about 10 mg/mL. Water is a suitable solvent for many dyes of the invention. Predetermined amounts of the labeling reagents are added to the protein solutions with stiffing. A molar ratio of 10 equivalents of dye to 1 equivalent of protein is typical, though the optimal amount varies with the particular labeling reagent, the protein being labeled and the protein's concentration, and is determined empirically.

Setting [1] is: ratio of dye/protein larger than 8.
Where [2] appears, read: ratio of dye/protein larger than 10.

Each structure is given as a SMILES string.

With `CC12CCCCCC(=O)NCCCCCCCCCCCCNC(=O)CCCCCC3(C)/C(=C/C=C/C=C/C1=[N+](CCCCCC(=O)ON1C(=O)CCC1=O)c1ccc(S(=O)(=O)O)cc12)N(CCCCCC(=O)ON1C(=O)CCC1=O)c1ccc(S(=O)(=O)O)cc13` (stereo not shown) [Compound 136], the “protein precipitation / water solubility of dye-protein conjugate” value (shortened to “protein precipitation / water solubility”) under setting [1] is given as “causes protein to precipitate”.

As to `CC1(C)C2=[N+](CCCCCC(=O)NC(Cc3ccc(S(=O)(=O)O)s3)C(=O)NCCCCC(C(=O)NCCCCCC(=O)ON3C(=O)CCC3=O)NC(=O)C(Cc3ccc(S(=O)(=O)[O-])s3)NC(=O)CCCCCC3(C)/C(=C/C=C/C=C/2)N(CCCS(=O)(=O)O)c2ccc(S(=O)(=O)O)cc23)c2ccc(S(=O)(=O)O)cc21` (stereo not shown) [Compound 134], under setting [2], the “protein precipitation / water solubility” value was “still water soluble”.

For `CC12CCCCCC(=O)NCCCCCNC(=O)C(CS(=O)(=O)O)NC(=O)C(CS(=O)(=O)O)NC(=O)C(CS(=O)(=O)O)NC(=O)CCCCCC3(C)/C(=C/C=C/C=C/C1=[N+](CCCCCC(=O)ON1C(=O)CCC1=O)c1ccc(S(=O)(=O)O)cc12)N(CCCCCC(=O)ON1C(=O)CCC1=O)c1ccc(S(=O)(=O)O)cc13` (stereo not shown) [Compound 39], the “protein precipitation / water solubility” value under setting [1] is reported as “still water soluble”.

In the case of `CC1(C)C2=[N+](CCCCCC(=O)NC(C(=O)NCCCCCC(=O)ON3C(=O)CCC3=O)CCCCNC(=O)CCCCCC3(C)/C(=C/C=C/C=C/2)N(CCCS(=O)(=O)O)c2ccc(S(=O)(=O)O)cc23)c2ccc(S(=O)(=O)[O-])cc21` (stereo not shown) [Compound 133], the “protein precipitation / water solubility” value under setting [2] was “causes protein to precipitate”.
